Assay [1] deals with T1, XIAP His-BIR2 (124-240/C202A/C213G) (Homo sapiens, UniProt P98170, C202A/C213G).
T1 construct: additions of His-BIR2 (124-240/C202A/C213G), Biotinylated SMAC peptide
As to the kind of experiment: XIAP-BIR2/SMAC Peptide AlphaScreen Assay. The class given is binding. The protocol:
A. XIAP-BIR2/SMAC Peptide AlphaScreen Assay Assays were performed in white, flat-bottom, 384-well ProxiPlates (Perkin Elmer). […] The reaction was incubated at room temperature for 60 minutes. After 60 minutes, 2.5 μL of Alphascreen detection reagent (Perkin Elmer) was added to the reaction mixture and incubated at room temperature in the dark for 120 minutes. The Alphascreen signal generated by the reaction was detected on the Envision Plate Reader. […] Compounds were dissolved at 10 mM in dimethylsulfoxide (DMSO) and evaluated at eleven concentrations. IC50 values were derived by non-linear regression analysis.

In assay [2] the target is N-His-Tb-BIR3(241-356, XIAP) (Homo sapiens, UniProt P98170). As to the kind of experiment: XIAP-BIR3 SMAC Peptide Fluorescence Polarization Assay (FPA). The format is binding.
Setting [3] is: XIAP BIR2, AlphaScreen, Table 2, read-out: BIR2 IC50.
Setting [4] is: XIAP BIR2, Alphascreen, Table 4, read-out: BIR2 Alpha Screen IC50.

Where two headings read alike, the source gives them in different places.

N-His-Tb-BIR3(241-356, XIAP), sequence (P98170 241-356): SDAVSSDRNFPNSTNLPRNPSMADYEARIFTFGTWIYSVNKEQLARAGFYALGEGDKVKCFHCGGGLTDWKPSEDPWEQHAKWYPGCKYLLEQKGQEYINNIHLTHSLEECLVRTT
T1 sequence (P98170 124-240 C202A/C213G): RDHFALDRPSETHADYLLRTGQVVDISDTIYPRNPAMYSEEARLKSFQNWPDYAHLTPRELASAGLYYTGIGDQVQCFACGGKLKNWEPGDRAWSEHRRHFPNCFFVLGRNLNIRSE

In the case of `CN[C@@H](C)C(=O)N[C@H](C(=O)N1C[C@@H]2C[C@H]1C(=O)N[C@@H](Cc1ccccc1)C(=O)N[C@H](C(=O)NCCN(C)C)Cc1ccc(cc1)OCc1cn(nn1)[C@H]1C[C@@H](C(=O)N[C@@H](Cc3ccccc3)C(=O)N[C@H](C(=O)NCCN(C)C)Cc3ccc(cc3)OCc3cn2nn3)N(C(=O)[C@@H](NC(=O)[C@H](C)NC)C(C)C)C1)C(C)C` [Compound 106], the IC50 was over 12000 nM in assay [1] (setting [3]) and 50 to 100 nM in assay [2].
For `CN[C@@H](C)C(=O)N[C@H](C(=O)N1C[C@@H]2C[C@H]1C(=O)N[C@@H](Cc1ccc(OCc3ccccc3)cc1)C(=O)N[C@H](C(=O)O)Cc1ccc(cc1)COc1cn(nn1)[C@H]1C[C@@H](C(=O)N[C@@H](Cc3ccc(OCc4ccccc4)cc3)C(=O)N[C@H](C(=O)O)Cc3ccc(cc3)OCc3cn2nn3)N(C(=O)[C@@H](NC(=O)[C@H](C)NC)C(C)C)C1)C(C)C` [Compound 115], the values for the IC50 in assay [1] (setting [3]) and in assay [2] were 2000 to 12000 nM and under 50 nM, respectively.
The corresponding values for `CN[C@@H](C)C(=O)N[C@H](C(=O)N1C[C@@H]2C[C@H]1C(=O)N[C@@H](Cc1c[nH]c3ccccc13)C(=O)N[C@H](C(=O)O)Cc1ccc(cc1)OCc1cn(nn1)[C@H]1C[C@@H](C(=O)N[C@@H](Cc3c[nH]c4ccccc34)C(=O)N[C@H](C(=O)O)Cc3ccc(cc3)OCc3cn2nn3)N(C(=O)[C@@H](NC(=O)[C@H](C)NC)C(C)C)C1)C(C)C` [Compound 125] are under 2000 nM and under 50 nM.
Turning to `CCS(=O)(=O)NC(=O)[C@@H]1Cc2ccc(cc2)OCc2cn(nn2)[C@H]2C[C@@H](C(=O)N[C@@H](Cc3ccc4ccccc4c3)C(=O)N[C@H](C(=O)NS(=O)(=O)CC)Cc3ccc(cc3)OCc3cn(nn3)[C@H]3C[C@@H](C(=O)N[C@@H](Cc4ccc5ccccc5c4)C(=O)N1)N(C(=O)[C@@H](NC(=O)[C@H](C)NC)C(C)(C)C)C3)N(C(=O)[C@@H](NC(=O)[C@H](C)NC)C(C)(C)C)C2` [Compound 1005], the IC50 in assay [1] (setting [4]) is under 2000 nM; in assay [2], under 50 nM.
`CN[C@@H](C)C(=O)N[C@H](C(=O)N1C[C@@H]2C[C@H]1C(=O)N[C@@H](Cc1ccc(OC)c(OC)c1)C(=O)N[C@H](C(=O)O)Cc1ccc(cc1)OCc1cn(nn1)[C@H]1C[C@@H](C(=O)N[C@@H](Cc3ccc(OC)c(OC)c3)C(=O)N[C@H](C(=O)O)Cc3ccc(cc3)OCc3cn2nn3)N(C(=O)[C@@H](NC(=O)[C@H](C)NC)C2CCCCC2)C1)C1CCCCC1` [Compound 132]: the IC50 in assay [1] (setting [3]) was over 12000 nM; in assay [2], over 100 nM.
The corresponding values for `CN[C@@H](C)C(=O)N[C@H](C(=O)N1C[C@@H]2C[C@H]1C(=O)N[C@@H](Cc1ccc(OC)c(OC)c1)C(=O)N[C@H](C(=O)O)Cc1ccc(cc1)OCc1cn(nn1)[C@H]1C[C@@H](C(=O)N[C@@H](Cc3ccc(OC)c(OC)c3)C(=O)N[C@H](C(=O)O)Cc3ccc(cc3)OCc3cn2nn3)N(C(=O)[C@@H](NC(=O)[C@H](C)NC)C(C)(C)C)C1)C(C)(C)C` [Compound 131] are 2000 to 12000 nM and over 100 nM.
The corresponding values for `CN[C@@H](C)C(=O)N[C@H](C(=O)N1C[C@@H]2C[C@H]1C(=O)N[C@@H](CCc1ccccc1)C(=O)N[C@H](C(=O)O)Cc1ccc(cc1)OCc1cn(nn1)[C@H]1C[C@@H](C(=O)N[C@@H](CCc3ccccc3)C(=O)N[C@H](C(=O)O)Cc3ccc(cc3)OCc3cn2nn3)N(C(=O)[C@@H](NC(=O)[C@H](C)NC)C(C)C)C1)C(C)C` [Compound 107] are under 2000 nM and over 100 nM.
The corresponding values for `CN[C@@H](C)C(=O)N[C@H](C(=O)N1C[C@@H]2C[C@H]1C(=O)N[C@@H](Cc1ccc3ccccc3c1)C(=O)N(C)[C@H](C(=O)O)Cc1ccc(cc1)OCc1cn(nn1)[C@H]1C[C@@H](C(=O)N[C@@H](Cc3ccc4ccccc4c3)C(=O)N(C)[C@H](C(=O)O)Cc3ccc(cc3)OCc3cn2nn3)N(C(=O)[C@@H](NC(=O)[C@H](C)NC)C(C)C)C1)C(C)C` [Compound 134] are under 2000 nM and 50 to 100 nM.
With `CN[C@@H](C)C(=O)N[C@H](C(=O)N1C[C@@H]2C[C@H]1C(=O)N[C@@H](Cc1ccc3ccccc3c1)C(=O)N[C@H](C(=O)NS(=O)(=O)c1ccccc1)Cc1ccc(cc1)OCc1cn(nn1)[C@H]1C[C@@H](C(=O)N[C@@H](Cc3ccc4ccccc4c3)C(=O)N[C@H](C(=O)NS(=O)(=O)c3ccccc3)Cc3ccc(cc3)OCc3cn2nn3)N(C(=O)[C@@H](NC(=O)[C@H](C)NC)C(C)(C)C)C1)C(C)(C)C` [Compound 1003], the values for the IC50 in assay [1] (setting [4]) and in assay [2] were under 2000 nM and 50 to 100 nM, respectively.
Consider `CN[C@@H](C)C(=O)N[C@H](C(=O)N1C[C@@H]2C[C@H]1C(=O)N[C@@H](Cc1ccc(-c3ccccc3)cc1)C(=O)N[C@H](C(=O)O)Cc1ccc(cc1)COc1cn(nn1)[C@H]1C[C@@H](C(=O)N[C@@H](Cc3ccc(-c4ccccc4)cc3)C(=O)N[C@H](C(=O)O)Cc3ccc(cc3)OCc3cn2nn3)N(C(=O)[C@@H](NC(=O)[C@H](C)NC)C(C)C)C1)C(C)C` [Compound 114], for which the 50% inhibitory concentration (IC50) in assay [1] (setting [3]) was under 2000 nM; in assay [2], under 50 nM.
The corresponding values for `CN[C@@H](C)C(=O)N[C@H](C(=O)N1C[C@@H]2C[C@H]1C(=O)N[C@@H](Cc1ccc(C(F)(F)F)cc1)C(=O)N[C@H](C(=O)O)Cc1ccc(cc1)COc1cn(nn1)[C@H]1C[C@@H](C(=O)N[C@@H](Cc3ccc(C(F)(F)F)cc3)C(=O)N[C@H](C(=O)O)Cc3ccc(cc3)OCc3cn2nn3)N(C(=O)[C@@H](NC(=O)[C@H](C)NC)C(C)C)C1)C(C)C` [Compound 113] are over 12000 nM and 50 to 100 nM.
The corresponding values for `CN[C@@H](C)C(=O)N[C@@H](CC(C)C)C(=O)N1C[C@@H]2C[C@H]1C(=O)N[C@@H](Cc1ccccc1)C(=O)N[C@H](C(=O)O)Cc1ccc(cc1)OCc1cn(nn1)[C@H]1C[C@@H](C(=O)N[C@@H](Cc3ccccc3)C(=O)N[C@H](C(=O)O)Cc3ccc(cc3)OCc3cn2nn3)N(C(=O)[C@H](CC(C)C)NC(=O)[C@H](C)NC)C1` [Compound 119] are under 2000 nM and under 50 nM.
Consider `CN[C@@H](C)C(=O)N[C@H](C(=O)N1C[C@@H]2C[C@H]1C(=O)N[C@@H](Cc1ccccc1)C(=O)N[C@H](C(=O)O)Cc1ccc(cc1)OCc1cn(nn1)[C@H]1C[C@@H](C(=O)N[C@@H](Cc3ccc4ccccc4c3)C(=O)N[C@H](C(=O)OC)Cc3ccc(cc3)OCc3cn2nn3)N(C(=O)[C@@H](NC(=O)[C@H](C)NC)C(C)(C)C)C1)C(C)(C)C` [Compound 150], for which the results for the IC50 in assay [1] (setting [4]) and in assay [2] were under 2000 nM and 50 to 100 nM, respectively.
The corresponding values for `CN[C@@H](C)C(=O)N[C@H](C(=O)N1C[C@@H]2C[C@H]1C(=O)N[C@@H](Cc1ccc3ccccc3c1)C(=O)N[C@H](C(=O)NS(C)(=O)=O)Cc1ccc(cc1)OCc1cn(nn1)[C@H]1C[C@@H](C(=O)N[C@@H](Cc3ccc4ccccc4c3)C(=O)N[C@H](C(=O)NS(C)(=O)=O)Cc3ccc(cc3)OCc3cn2nn3)N(C(=O)[C@@H](NC(=O)[C@H](C)NC)C(C)(C)C)C1)C(C)(C)C` [Compound 1004] are under 2000 nM and 50 to 100 nM.
Take `CN[C@@H](C)C(=O)N[C@H](C(=O)N1C[C@@H]2C[C@H]1C(=O)N[C@@H](Cc1ccccc1)C(=O)N[C@H](C(=O)O)Cc1ccc(cc1)OCc1cn(nn1)[C@H]1C[C@@H](C(=O)N[C@@H](Cc3ccc4ccccc4c3)C(=O)N[C@H](C(=O)O)Cc3ccc(cc3)OCc3cn2nn3)N(C(=O)[C@@H](NC(=O)[C@H](C)NC)C(C)(C)C)C1)C(C)(C)C` [Compound 149]: the half-inhibitory concentration (IC50) in assay [1] (setting [4]) is under 2000 nM; in assay [2], under 50 nM.
`CN[C@@H](C)C(=O)N[C@H](C(=O)N1C[C@@H]2C[C@H]1C(=O)N[C@@H](Cc1csc3ccccc13)C(=O)N[C@H](C(=O)O)Cc1ccc(cc1)OCc1cn(nn1)[C@H]1C[C@@H](C(=O)N[C@@H](Cc3csc4ccccc34)C(=O)N[C@H](C(=O)O)Cc3ccc(cc3)OCc3cn2nn3)N(C(=O)[C@@H](NC(=O)[C@H](C)NC)C(C)C)C1)C(C)C` [Compound 124]: the IC50 was under 2000 nM in assay [1] (setting [3]) and under 50 nM in assay [2].
The corresponding values for `CN[C@@H](C)C(=O)N[C@H](C(=O)N1C[C@@H]2C[C@H]1C(=O)N[C@@H](Cc1ccccc1)C(=O)N[C@@H](C(=O)O)Cc1ccc(cc1)NC(=O)CCc1cn(nn1)[C@H]1C[C@@H](C(=O)N[C@@H](Cc3ccccc3)C(=O)N[C@@H](C(=O)O)Cc3ccc(cc3)NC(=O)CCc3cn2nn3)N(C(=O)[C@@H](NC(=O)[C@H](C)NC)C(C)C)C1)C(C)C` [Compound 102] are under 2000 nM and 50 to 100 nM.
`CN[C@@H](C)C(=O)N[C@H](C(=O)N1C[C@@H]2C[C@H]1C(=O)N[C@@H](Cc1ccc3ccccc3c1)C(=O)N[C@H](C(=O)NS(=O)(=O)C(F)(F)F)Cc1ccc(cc1)OCc1cn(nn1)[C@H]1C[C@@H](C(=O)N[C@@H](Cc3ccc4ccccc4c3)C(=O)N[C@H](C(=O)NS(=O)(=O)C(F)(F)F)Cc3ccc(cc3)OCc3cn2nn3)N(C(=O)[C@@H](NC(=O)[C@H](C)NC)C(C)(C)C)C1)C(C)(C)C` [Compound 1007]: the values for the half-maximal inhibitory concentration (IC50) in assay [1] (setting [4]) and in assay [2] were 2000 to 12000 nM and 50 to 100 nM, respectively.
With `CCN(CC)C(=O)[C@@H]1Cc2ccc(cc2)OCc2cn(nn2)[C@H]2C[C@@H](C(=O)N[C@@H](Cc3ccccc3)C(=O)N[C@H](C(=O)N(CC)CC)Cc3ccc(cc3)OCc3cn(nn3)[C@H]3C[C@@H](C(=O)N[C@@H](Cc4ccccc4)C(=O)N1)N(C(=O)[C@@H](NC(=O)[C@H](C)NC)C(C)C)C3)N(C(=O)[C@@H](NC(=O)[C@H](C)NC)C(C)C)C2` [Compound 105], the IC50 in assay [1] (setting [3]) was over 12000 nM; in assay [2] it was 50 to 100 nM.

Values taken from US20140309265A1, “MACROCYCLIC COMPOUNDS FOR INHIBITION OF INHIBITORS OF APOPTOSIS” (Ensemble Therapeutics, priority 2011, published 2014).
